{"source": "patent EP3470068B1", "about": "“ANTIBACTERIAL COMPOSITIONS WITH ENHANCED ACTIVITY” (Università degli Studi di Parma, priority 2017, dated 2019)", "key": {"[1]": {"tested_on": "Escherichia coli ATCC 25922", "experiment": "MIC by serial microdilution in liquid culture", "assay_type": "cell-based", "details": "E. coli ATCC 25922; phosphate buffer 10 mM with 40% Müller Hinton broth, 24 hours at 37°C", "method": "(§1) For each bacterial strain 3-5 morphologically similar colonies from fresh cultures were taken, inoculated in Brain Heart Infusion broth medium and then incubated at 37°C in agitation at 225 r.p.m. for about 3-4 hours. Subsequently, the bacterial suspension was centrifuged at 1000 r.p.m. for 20 minutes and the obtained pellet was resuspended in phosphate buffer 10 mM. Turbidity of the bacterial suspension was measured by evaluating the absorbance using a spectrophotometer at 600 nm. The range 0,08-0,13 equates to a concentration of about 10^8 CFU/ml. The bacterial suspension was diluted 1:100 in phosphate buffer 10 mM, then, within 30 minutes, 50 µl of this bacterial suspension (10^6 CFU/ml) were inoculated in each well of the microtiter plate to obtain a final bacterial concentration of about 5 x 10^5 CFU/ml.\n(§2) The different molecules were tested for their ability to inhibit bacterial and fungal growth in broth culture. Single molecules were diluted in phosphate buffer 10 mM with 40% of Müller Hinton broth. 50 µl of diluted molecules were added to microtiter U plate wells with phosphate buffer and 40% of Müeller Hinton broth and a suspension of one of these strains: Escherichia coli ATCC 25922, Pseudomonas aeruginosa ATCC 27853, Staphylococcus aureus ATCC 25923, MRSA ATCC 43300, Candida albicans ATCC 11006 or Malassezia pachydermatis DSMZ 6172.\n(§3) For bacterial strains the different molecules were tested at the following concentrations: • NCP-3: from 0,2 µg/ml to 50 µg/ml • Benzalkonium chloride: from 0,00008% to 0,04% • Thimerosal: from 0,0008% to 0,4% • Tris/EDTA: from 0,4%/0,1% to 0,0008%/0,0002%\n(§4) Bacterial and fungal growth controls were cultured in absence of antimicrobial molecules. Microtiter plates were incubated 24 or 48 hours (bacterial and fungal strains, respectively) at 37°C and subsequently MIC was determined for each molecule against each strain."}, "[2]": {"tested_on": "Pseudomonas aeruginosa ATCC 27853", "experiment": "MIC by serial microdilution in liquid culture", "assay_type": "cell-based", "details": "P. aeruginosa ATCC 27853; phosphate buffer 10 mM with 40% Müller Hinton broth, 24 hours at 37°C", "method": "as §1, §2, §3, §4"}, "[3]": {"tested_on": "Staphylococcus aureus ATCC 25923", "experiment": "MIC by serial microdilution in liquid culture", "assay_type": "cell-based", "details": "S. aureus ATCC 25923; phosphate buffer 10 mM with 40% Müller Hinton broth, 24 hours at 37°C", "method": "as §1, §2, §3, §4"}, "MRSA ATCC 43300 [4]": {"tested_on": "MRSA ATCC 43300", "experiment": "MIC by serial microdilution in liquid culture", "assay_type": "cell-based, Methicillin Resistant Staphylococcus aureus (MRSA)", "details": "phosphate buffer 10 mM with 40% Müller Hinton broth, 24 hours at 37°C", "method": "as §1\nas §2, with “6172. […]” for “6172.”"}, "[5]": {"tested_on": "Candida albicans ATCC 11006", "experiment": "MIC by serial microdilution in liquid culture", "assay_type": "cell-based", "details": "C. albicans ATCC 11006; phosphate buffer 10 mM with 40% Müller Hinton broth, 48 hours at 37°C", "method": "(§5) For each fungal strain 3-5 morphologically similar colonies were collected from fresh cultures, inoculated in Brain Heart Infusion broth medium and then incubated at 37°C in agitation at 225 r.p.m. for 6-8 hours. Subsequently, the fungal suspension was centrifuged at 1000 r.p.m. for 20 minutes and the obtained pellet was resuspended in phosphate buffer 10 mM and diluted to a turbidity equal to 5 of McFarland standard, corresponding to a concentration of 10^8 CFU/ml. Fungal suspension was diluted 1:100 in phosphate buffer 10 mM, then, within 30 minutes, 50 µl of this bacterial suspension (10^6 CFU/ml) were inoculated in each well of microtiter plate to obtain a final concentration of about 5 x 10^5 CFU/ml.\nas §2, with “6172. […]” for “6172.”"}, "[6]": {"tested_on": "Malassezia pachydermatis DSMZ 6172", "experiment": "MIC by serial microdilution in liquid culture", "assay_type": "cell-based", "details": "M. pachydermatis DSMZ 6172; phosphate buffer 10 mM with 40% Müller Hinton broth, 48 hours at 37°C", "method": "as §5\nas §2, with “6172. […]” for “6172.”"}, "[7]": {"tested_on": "Escherichia coli ATCC 25922", "experiment": "LD90/LD99 by microdilution and agar plating (CFU count)", "assay_type": "cell-based", "details": "E. coli ATCC 25922; two hours contact at 37°C, plated on agar, CFU counted", "method": "as §1, with “colonies were collected” for “colonies”, “fresh cultures,” for “fresh cultures were taken,”, “CFU/ml. the” for “CFU/ml. The”\n(§6) Different molecules were tested for their ability to inhibit bacterial and fungal growth in broth culture. 50 µl of molecules at the indicated below concentrations were added to microtiter U plate 96 wells with phosphate buffer and a suspension of one of these strains: Escherichia coli ATCC 25922, Pseudomonas aeruginosa ATCC 27853, Staphylococcus aureus ATCC 25923, MRSA ATCC 43300, Candida albicans ATCC 11006 or Malassezia pachydermatis DSMZ 6172.\n(§7) The following concentrations of the different molecules were tested: • NCP-3: from 0,2 µg/ml to 50 µg/ml • Benzalkonium chloride: from 0,00008% to 0,04% • Thimerosal: from 0,0008% to 0,4% • Tris/EDTA: from 0,4%/0,1% to 0,0008%/0,0002%\n(§8) The bacterial or fungal suspension has been contacted for two hours with the different antimicrobial molecules at 37°C. After incubation, 20 µl of solution were withdrawn from each dilution and plated on agar medium, Columbia with 5% of bovine erythrocytes for bacterial strains and Sabouraud agar for fungal strains. The inoculum was uniformly distributed on agar plates with a sterile disposable handle. After incubation at 37°C for 24 hours for bacterial strains and 48 hours for fungal strains, colonies (CFU) were counted."}, "[8]": {"tested_on": "Pseudomonas aeruginosa ATCC 27853", "experiment": "LD90/LD99 by microdilution and agar plating (CFU count)", "assay_type": "cell-based", "details": "P. aeruginosa ATCC 27853; two hours contact at 37°C, plated on agar, CFU counted", "method": "as §1, with “colonies were collected” for “colonies”, “fresh cultures,” for “fresh cultures were taken,”, “CFU/ml. the” for “CFU/ml. The”\nas §6, §7, §8"}, "[9]": {"tested_on": "Staphylococcus aureus ATCC 25923", "experiment": "LD90/LD99 by microdilution and agar plating (CFU count)", "assay_type": "cell-based", "details": "S. aureus ATCC 25923; two hours contact at 37°C, plated on agar, CFU counted", "method": "as §1, with “colonies were collected” for “colonies”, “fresh cultures,” for “fresh cultures were taken,”, “CFU/ml. the” for “CFU/ml. The”\nas §6, §7, §8"}, "MRSA ATCC 43300 [10]": {"tested_on": "MRSA ATCC 43300", "experiment": "LD90/LD99 by microdilution and agar plating (CFU count)", "assay_type": "cell-based, Methicillin Resistant Staphylococcus aureus (MRSA)", "details": "two hours contact at 37°C, plated on agar, CFU counted", "method": "as §1, with “colonies were collected” for “colonies”, “fresh cultures,” for “fresh cultures were taken,”, “CFU/ml. the” for “CFU/ml. The”\nDifferent molecules were tested for their ability to inhibit bacterial and fungal growth in broth culture. […]\nThe bacterial or fungal suspension has been contacted for two hours with the different antimicrobial molecules at 37°C. […] After incubation at 37°C for 24 hours for bacterial strains and 48 hours for fungal strains, colonies (CFU) were counted."}, "[11]": {"tested_on": "Candida albicans ATCC 11006", "experiment": "LD90/LD99 by microdilution and agar plating (CFU count)", "assay_type": "cell-based", "details": "C. albicans ATCC 11006; two hours contact at 37°C, plated on Sabouraud agar, CFU counted", "method": "as §5, with “The fungal” for “Fungal”\nas §6, §7, §8"}, "[12]": {"tested_on": "Malassezia pachydermatis DSMZ 6172", "experiment": "LD90/LD99 by microdilution and agar plating (CFU count)", "assay_type": "cell-based", "details": "M. pachydermatis DSMZ 6172; two hours contact at 37°C, plated on Sabouraud agar, CFU counted", "method": "as §5, with “The fungal” for “Fungal”\nas §6, §7, §8"}, "Gram negative": {"tested_on": "Gram negative", "experiment": "MIC by serial microdilution", "assay_type": "cell-based", "details": "used alone", "method": "as §1\nas §2, with “6172. […]” for “6172.”"}, "Gram positive bacteria": {"tested_on": "Gram positive bacteria", "experiment": "MIC by serial microdilution", "assay_type": "cell-based", "details": "used alone", "method": "as §1\nas §2, with “6172. […]” for “6172.”"}}, "note": "Peptide text beside a SMILES is read from it."}
{"molecule": "CC[C@H](C)[C@H](NC(=O)[C@H](CCCCN)NC(=O)[C@H](Cc1ccc(O)cc1)NC(=O)[C@H](Cc1ccccc1)NC(=O)[C@H](CC(C)C)NC(=O)[C@H](CC(N)=O)NC(=O)[C@H](CCCCN)NC(=O)[C@@H](NC(=O)[C@H](C)NC(=O)[C@@H]1CCCN1C(=O)[C@@H](NC(=O)[C@@H](NC(=O)[C@H](CCCCN)NC(=O)[C@H](CO)NC(=O)[C@H](CC(C)C)NC(=O)[C@@H](NC(=O)[C@H](Cc1c[nH]c2ccccc12)NC(=O)[C@@H](NC(=O)[C@H](CC(C)C)NC(=O)[C@@H](N)CCCCN)[C@@H](C)CC)[C@@H](C)CC)[C@@H](C)O)[C@@H](C)CC)[C@@H](C)CC)C(=O)O", "note": "[NCP-3] (H-KLIWILSKTIPAIKNLFYKI-OH)", "values": [{"measurement": "MIC", "setting": "[1]", "value": "6,3 µg/ml"}, {"measurement": "MIC", "setting": "[2]", "value": "6,3 µg/ml"}, {"measurement": "MIC", "setting": "[3]", "value": "3,1 µg/ml"}, {"measurement": "MIC", "setting": "MRSA ATCC 43300 [4]", "value": "6,3 µg/ml"}, {"measurement": "MIC", "setting": "[5]", "value": "12,5 µg/ml"}, {"measurement": "MIC", "setting": "[6]", "value": "3,1 µg/ml"}, {"measurement": "LD90", "setting": "[7]", "value": "6,3 µg/ml"}, {"measurement": "LD99", "setting": "[7]", "value": "12,5 µg/ml"}, {"measurement": "LD90", "setting": "[8]", "value": "6,3 µg/ml"}, {"measurement": "LD99", "setting": "[8]", "value": "12,5 µg/ml"}, {"measurement": "LD90", "setting": "[9]", "value": ">1,6 µg/ml"}, {"measurement": "LD99", "setting": "[9]", "value": "6,3 µg/ml"}, {"measurement": "LD90", "setting": "MRSA ATCC 43300 [10]", "value": "6,3 µg/ml"}, {"measurement": "LD99", "setting": "MRSA ATCC 43300 [10]", "value": "12,5 µg/ml"}, {"measurement": "LD90", "setting": "[11]", "value": ">6,3 µg/ml"}, {"measurement": "LD99", "setting": "[11]", "value": "12,5 µg/ml"}, {"measurement": "LD90", "setting": "[12]", "value": ">1,6 µg/ml"}, {"measurement": "LD99", "setting": "[12]", "value": "3,2 µg/ml"}, {"measurement": "MIC", "setting": "Gram negative", "value": "6,3 µg/ml"}, {"measurement": "MIC", "setting": "Gram positive bacteria", "value": "3,2 µg/ml"}]}
